The text below walks through data of ChEMBL document CHEMBL1153455, “N-(4-(4-(2,3-dichloro- or 2-methoxyphenyl)piperazin-1-yl)butyl)heterobiarylcarboxamides with functionalized linking chains as high affinity and enantioselective D3 receptor antagonists” (J Med Chem, 2009).

Assay [1] addresses T1, D(3) dopamine receptor (Homo sapiens, UniProt P35462). As to the kind of experiment: biochemical.
The target of assay [2] is D(1A) dopamine receptor (Homo sapiens, UniProt P21728). The assay is described as follows: Displacement of [3H]SCH23390 from D1 receptor. A general note: Displacement assays read how much labelled ligand stays bound in the presence of the test substance.
D(1A) dopamine receptor, sequence (P21728 whole entry): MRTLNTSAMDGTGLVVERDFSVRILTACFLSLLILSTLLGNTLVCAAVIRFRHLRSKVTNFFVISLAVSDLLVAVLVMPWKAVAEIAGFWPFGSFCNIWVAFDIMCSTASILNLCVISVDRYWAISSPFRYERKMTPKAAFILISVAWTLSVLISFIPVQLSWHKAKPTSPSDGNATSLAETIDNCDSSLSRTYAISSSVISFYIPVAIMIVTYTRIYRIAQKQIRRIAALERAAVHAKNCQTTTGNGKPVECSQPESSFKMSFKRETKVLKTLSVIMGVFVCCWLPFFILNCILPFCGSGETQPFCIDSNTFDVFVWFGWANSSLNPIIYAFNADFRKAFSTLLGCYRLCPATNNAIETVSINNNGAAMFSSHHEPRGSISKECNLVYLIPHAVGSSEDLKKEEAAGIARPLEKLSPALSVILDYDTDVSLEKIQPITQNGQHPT
Assay [3] can be described thus: cells. The note with it: Homo sapiens, HEK293.
Description: Antagonist activity at human D2 like receptor expressed in HEK293 cells assessed as inhibition of quinpirole-stimulated mitogenesis
The target of assay [4] is T2, D(4) dopamine receptor (Homo sapiens, UniProt P21917).
T2 sequence (P21917 whole entry): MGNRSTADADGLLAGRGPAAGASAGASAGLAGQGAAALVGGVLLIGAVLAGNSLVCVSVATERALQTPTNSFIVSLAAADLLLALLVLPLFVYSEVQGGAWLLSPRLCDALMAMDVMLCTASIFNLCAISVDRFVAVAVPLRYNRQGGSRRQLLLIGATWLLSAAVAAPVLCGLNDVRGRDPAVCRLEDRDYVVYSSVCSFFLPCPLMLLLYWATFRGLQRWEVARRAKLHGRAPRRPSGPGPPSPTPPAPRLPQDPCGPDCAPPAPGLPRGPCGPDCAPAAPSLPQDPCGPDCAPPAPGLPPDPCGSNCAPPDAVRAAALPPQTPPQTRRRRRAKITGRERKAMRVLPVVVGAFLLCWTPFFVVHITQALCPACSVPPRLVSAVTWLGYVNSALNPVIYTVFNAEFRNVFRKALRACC
The assay is described as follows: biochemical.

The target of assay [5] is T1, D(3) dopamine receptor. As to the kind of experiment: Agonist activity at human D3 receptor expressed in HEK293 cells assessed as stimulation of mitogenesis relative to quinpirole. Type of assay: functional, cell-based. On the set-up: concentration or dose not given beside the values.
Assay [6] is filed under the species Homo sapiens. The assay is described as follows: Selectivity of IC50 for human D2 like receptor to IC50 for human D3 receptor.
Assay [7] has as its target T1, D(3) dopamine receptor.
Assay [8] concerns the target T3, 5-hydroxytryptamine receptor 1A (Homo sapiens, UniProt P08908).
T3 sequence (P08908 whole entry): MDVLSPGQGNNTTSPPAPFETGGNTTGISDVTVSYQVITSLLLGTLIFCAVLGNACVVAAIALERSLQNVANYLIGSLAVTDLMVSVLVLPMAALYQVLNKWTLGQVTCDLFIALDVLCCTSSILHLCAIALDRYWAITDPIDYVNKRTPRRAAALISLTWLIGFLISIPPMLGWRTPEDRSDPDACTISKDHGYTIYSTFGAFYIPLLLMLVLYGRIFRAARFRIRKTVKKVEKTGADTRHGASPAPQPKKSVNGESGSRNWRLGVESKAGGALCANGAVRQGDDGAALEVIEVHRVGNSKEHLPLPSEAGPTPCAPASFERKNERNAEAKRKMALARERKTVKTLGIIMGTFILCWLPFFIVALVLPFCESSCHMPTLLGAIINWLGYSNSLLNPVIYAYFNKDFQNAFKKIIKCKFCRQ
As to the kind of experiment: Displacement of [3H]8-OH-DPAT from 5HT1A receptor.

Assay [9] can be described thus: Antagonist activity at human D3 receptor expressed in HEK293 cells assessed as inhibition of quinpirole-stimulated mitogenesis.

T1 sequence (P35462 whole entry): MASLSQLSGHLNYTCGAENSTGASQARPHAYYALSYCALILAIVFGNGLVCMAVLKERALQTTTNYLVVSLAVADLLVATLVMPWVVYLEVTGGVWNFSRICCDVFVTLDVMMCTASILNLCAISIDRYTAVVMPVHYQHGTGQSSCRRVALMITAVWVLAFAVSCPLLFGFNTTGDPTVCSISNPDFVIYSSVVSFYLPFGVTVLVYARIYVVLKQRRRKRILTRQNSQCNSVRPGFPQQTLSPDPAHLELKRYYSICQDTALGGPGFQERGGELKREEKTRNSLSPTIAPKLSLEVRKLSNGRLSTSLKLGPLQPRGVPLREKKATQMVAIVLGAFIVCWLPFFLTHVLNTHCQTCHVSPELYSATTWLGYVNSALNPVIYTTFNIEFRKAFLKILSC

Broadly, the Ki is a measure of affinity in units of concentration, obtained from inhibition or displacement. Turning to `COc1ccccc1N1CCN(C/C=C/CNC(=O)c2cc3ccccc3s2)CC1`, the Ki in assay [1] came out at 2.61 nM; in assay [2] it was 678 nM.

As usually defined, the IC50 is the concentration needed to halve the response being measured. On to `O=C(NCCCCN1CCN(c2cccc(Cl)c2Cl)CC1)c1cc2cc(I)ccc2o1`, for which the half-inhibitory concentration (IC50) in [3] is 1030 nM. In addition, the Ki in assay [2] amounted to 2920 nM; in assay [4], 1720 nM.

`O=C(NCC[C@H](O)CN1CCN(c2cccc(Cl)c2Cl)CC1)c1cc2ccccc2[nH]1`: the Activity in assay [5] was 42.2%. This compound also showed a Ki in [2] above 10000 nM.

`O=C(NCCC(O)CN1CCN(c2cccc(Cl)c2Cl)CC1)c1cc2cc(I)ccc2[nH]1` (stereo unspecified): the Activity in [5] is 26%. The Ki in assay [1] is 5.21 nM; in assay [2] it was above 10000 nM; in assay [4], above 10000 nM.

With `COc1ccccc1N1CCN(CC(O)CCNC(=O)c2cc3cc(I)ccc3[nH]2)CC1` (stereo unspecified), the Ki in assay [1] is 3.6 nM; in assay [2] it was above 10000 nM; in assay [4] it was 455 nM.

For the compound `COc1ccc2[nH]c(C(=O)NCCC(O)CN3CCN(c4ccccc4OC)CC3)cc2c1` (stereo unspecified), the Ki in [1] was 2.32 nM; in [2] it was above 10000 nM; in assay [4] it was 1530 nM. The compound further had a fold change (FC) in assay [6] above 100.

As to `COc1ccccc1N1CCN(CCCCNC(=O)c2cc3ccccc3[nH]2)CC1`, the values for the Ki in assay [4] and in assay [7] were 476 nM and 0.32 nM, respectively.

With `COc1ccccc1N1CCN(CCCCNC(=O)c2cc3cc(I)ccc3o2)CC1`, the Ki in assay [1] worked out at 0.72 nM; in [2] it was 900 nM; in [4] it was 335 nM. The same compound yielded an IC50 in [3] of 170 nM.

Turning to `O=C(NCC(O)CCN1CCN(c2cccc(Cl)c2Cl)CC1)c1cc2ccccc2[nH]1` (stereo unspecified), the results for the Ki in assay [8], in [2] and in assay [4] were 58.3 nM, above 10000 nM and 1040 nM, respectively. The compound further gave a half-maximal inhibitory concentration (IC50) in [3] of 340 nM.

`COc1ccccc1N1CCN(CCCCNC(=O)c2cc3ccccc3s2)CC1` had an IC50 in [3] of 21.4 nM. Besides, the fold change (FC) in assay [6] was found to be 100.

`COc1ccc2[nH]c(C(=O)NCCC(O)CN3CCN(c4cccc(Cl)c4Cl)CC3)cc2c1` (stereo unspecified): the Activity in assay [5] came out at 34.9%. For the same compound, the inhibition constant Ki in [1] is 1.2 nM; in [2] it was above 10000 nM; in assay [4] it was above 10000 nM. In assay [6], this compound displayed a fold change (FC) above 100.

As for `COc1ccccc1N1CCN(CCC(O)CNC(=O)c2cc3ccccc3[nH]2)CC1` (stereo unspecified), the Ki is 0.51 nM in assay [1] and 176 nM in assay [4].

On to `O=C(NCC[C@@H](O)CN1CCN(c2cccc(Cl)c2Cl)CC1)c1cc2ccccc2[nH]1`, for which, in [2], the Ki was above 10000 nM.

On to `COc1ccccc1N1CCN(CC(O)CCNC(=O)c2cc3ccccc3[nH]2)CC1` (stereo unspecified), for which the Ki was 132 nM in assay [8] and above 10000 nM in [2]. Besides, the concentration for half-maximal inhibition (IC50) in assay [3] stood at 427 nM.

In the case of `O=C(NC/C=C/CN1CCN(c2cccc(Cl)c2Cl)CC1)c1cc2ccccc2[nH]1`, the inhibition constant Ki in assay [8] came out at 193 nM; in [1], 0.44 nM; in assay [2], 910 nM; in assay [4] it was 640 nM. This compound also came in with a half-inhibitory concentration (IC50) in [3] of 175 nM.

Regarding `COc1ccccc1N1CCN(CC(O)CCNC(=O)c2cc3ccccc3s2)CC1` (stereo unspecified), the half-inhibitory concentration (IC50) in [3] was 146 nM. The affinity in [2], expressed as Ki, was 6650 nM.

As to `COc1ccccc1N1CCN(CC(O)CCNC(=O)c2cc3cc(F)ccc3[nH]2)CC1` (stereo unspecified), the Ki was determined as 2.41 nM in [1], 5060 nM in [2] and 967 nM in [4]. The compound also displayed an IC50 in assay [3] of 270 nM. The compound also yielded a fold change (FC) in [6] of 100.

With `O=C(NC/C=C/CN1CCN(c2cccc(Cl)c2Cl)CC1)c1cc2ccccc2o1`, the figures for the inhibition constant (Ki) in [8] and in assay [2] were 58.8 nM and 1460 nM, respectively. 111 nM corresponded to half-maximal inhibition in [3] (IC50).

For the compound `COc1ccccc1N1CCN(CC(O)CCNC(=O)c2cc3cc(I)ccc3o2)CC1` (stereo unspecified), the values for the Ki in assay [1], in [2] and in [4] were 7.5 nM, 3690 nM and 1290 nM, respectively. Further, the IC50 in [3] stood at 405 nM.

With `O=C(NCCC(O)CN1CCN(c2cccc(Cl)c2Cl)CC1)c1cc2cc(F)ccc2[nH]1` (stereo unspecified), the inhibition constant (Ki) was above 10000 nM in assay [2] and above 5000 nM in assay [4].

For the compound `O=C(NCCC(O)CN1CCN(c2cccc(Cl)c2Cl)CC1)c1cc2cc(I)ccc2o1` (stereo unspecified), the Activity in assay [5] worked out at 23.6%. For the same compound, the results for the Ki in [1], in assay [2] and in assay [4] were 7.71 nM, above 10000 nM and above 10000 nM, respectively.

In [3], `CCCOc1ccccc1N1CCN(CC(O)CCNC(=O)c2cc3ccccc3[nH]2)CC1` (stereo unspecified) returned an IC50 of 162 nM. Further, in [2], the inhibition constant (Ki) amounted to 4960 nM.

On to `O=C(NCCC(O)CN1CCN(c2cccc(Cl)c2Cl)CC1)c1cc2ccccc2o1` (stereo unspecified), for which, in assay [5], the Activity was determined as 22.6%. Also, the Ki in assay [1] was 6.11 nM; in [2] it was above 10000 nM; in assay [4], above 10000 nM.

Consider `COc1ccccc1N1CCN(CC(O)CCNC(=O)c2cc3ccccc3o2)CC1` (stereo unspecified), for which the results for the Ki in assay [1], in assay [2] and in assay [4] were 7.51 nM, above 10000 nM and 2140 nM, respectively.

Consider `COc1ccccc1N1CCN(C/C=C/CNC(=O)c2cc3ccccc3o2)CC1`, for which the Ki worked out at 11.3 nM in [1] and 990 nM in [2].

For `O=C(NC/C=C/CN1CCN(c2cccc(Cl)c2Cl)CC1)c1cc2ccccc2s1`, the inhibitory constant (Ki) came to 388 nM in assay [8] and 1730 nM in [2]. Also, the IC50 in assay [3] came out at 254 nM; in assay [9], 9.62 nM.
